Consider one compound from US11034702B2, “Thienoisoquinolines and their derivatives for the treatment of cancer” (VALORBEC, SOCIÉTÉ EN COMMANDITE, priority 2016, dated 2021).

Entries after “also recorded” stand apart in the source; their conditions may differ.

Experiment [1] relates to MCF-7 (mammary gland carcinoma) cells. Description: IC50 (viability) in MCF-7 cells. To be noted: Homo sapiens, MCF7. The class given is cell-based. As for the experimental part: (§1) 19 variants with different structural modifications have been made. […] In particular, it is shown that C75 causes death in multiple cancer cells with IC50 values in the 100 nM range, including breast cancers (MCF7, BT549), lung cancer (A549), colorectal cancer (HCT116) in addition to HeLa cells (cervical cancer).

Experiment [2] has as its system MCF-10A (mammary gland fibrocystic disease) non-cancer cells. In words: IC50 (viability) in MCF-10A non-cancer cells. The experiment is classed as cell-based. To be noted: Homo sapiens, MCF10A non-cancer cells. As for the experimental part: as §1
A further experiment relates to HFF1 cells. In words: Mitotic spindle phenotype in HFF1 cells. The class given is cell-based. As for the experimental part:
There were more rounded mitotic cells after C75 treatment in comparison to the control. FIG. 1B) is a line graph showing the percentage of HeLa and HFF1 cells in mitosis after treatment with various concentrations of C75 for 8 hours. The bars indicate standard deviation. FIG. 1C) is a series of images showing cells that were fixed and co-stained for tubulin (microtubules) and DAPI (DNA). Treatment of HeLa cells with 300 nM C75 caused the mitotic spindles to be disorganized, while they were not affected in HFF1 cells. […] The scale bar for the cells is 10 μm. FIG. 1D) is a cartoon schematic showing the key features of a metaphase cell.
FIG. 2A) is a line graph showing the percentage of HCT116 (p53−/−) cells, A549 cells, HeLa cells and H1299 cells in mitosis after treatment with various concentrations of C75 for one population doubling time. All of the cell lines show an increase in the proportion of mitotic cells after treatment with 200 nM C75. The bars indicate standard deviation. […]
(§2) C75 was also tested for efficacy in different cancer cell lines. […] To further assess the role of C75 in affecting centrosomes, HeLa cells were treated with C75 for a short period of time (5 minutes), then C75 was removed and the cells were analyzed for spindle phenotypes (schematic in FIG. 2D). […]

Another experiment has as its system MCF-10A cells. In words: Mitotic spindle phenotype in MCF-10A cells. To be noted: 300 nM, 6-8 hours. The class given is cell-based. As to the method:
(§3) FIG. 2A) is a line graph showing the percentage of HCT116 (p53−/−) cells, A549 cells, HeLa cells and H1299 cells in mitosis after treatment with various concentrations of C75 for one population doubling time. All of the cell lines show an increase in the proportion of mitotic cells after treatment with 200 nM C75. The bars indicate standard deviation. […] While the mitotic spindles were not dramatically altered by C75 in HFF1 cells, they were monopolar (as shown) or fragmented in the other cell types. […] The mitotic spindles were more strongly fragmented after C75 treatment in these cells vs. the cells in FIG. 2B). […] While mitotic spindles recovered bipolarity after removing nocodazole, they remained multipolar after removing C75. FIG. 2F) is a series of time-lapse images of a live HeLa cell expressing GFP:tubulin after treatment with C75 as shown in 2D) and 2E). The scale bar for all cells is 10 μm. FIG. 2G) is a schematic showing the putative target for C75. […]
as §2

The subject of another experiment is MCF-7 cells. In words: Mitotic spindle phenotype in MCF-7 cells. The class given is cell-based, human. The conditions noted are these: MCF-7, 300 nM, 6-8 hours. As to the method: as §3, §2
The next experiment concerns HeLa spheroids. Description: HeLa multicellular tumour spheroids. The class given is cell-based, human. As to the method: (§4) FIG. 5A) is a series of images of HeLa multicellular tumor spheroids (spheroids) treated with control (500 nM C87), empty nanoparticles, 500 nM C75 and 250 nM C75-loaded nanoparticles over 3 days. […] The scale bar for all images is 100 μm. FIG. 5B) is a series images of HeLa spheroids after three days of treatment with control (500 nM C87) or 500 nM C75. The spheroids were stained for fluorescein diacetate (to detect live cells) and propidium iodide (to detect dead cells). […] The scale bar for all images is 100 μm. FIG. 5C) is a series of images of HCT116 spheroids treated with control (1 μM C87), 500 nM C75, 1 μM C75 and 500 nM C75-loaded nanoparticles over 5 days. […] The borders of the spheroids treated with 1 μM C75 or with 500 nM C75-loaded nanoparticles became highly irregular, indicative of loss of spheroid integrity. FIG. 5D) is a series images of HCT116 spheroids after six days of treatment with control (1 μM C87) or 1 μM C75. The spheroids were stained for fluorescein diacetate (live cells) and propidium iodide (dead cells). […] FIG. 5E) is a line graph showing the growth in surface area (%) of HCT116 spheroids treated with control (1 μM C87), 500 nM C75 and 1 μM C75 after six days. FIG. 5F) is a series of images of A549 spheroids treated with control (750 nM C87), 500 nM C75, 1 μM C75 and 500 nM C75-loaded nanoparticles over 5 days. […] The scale bar for all images is 100 μm. […]

For a further experiment, the system named is HCT116 spheroids. In words: HCT116 multicellular tumour spheroids. The class given is cell-based. As to the method:
as §4

As a reminder, the IC50 is the concentration that gives 50% inhibition. Higher therefore signals a need for much substance. Turning to `COc1ccc(S(=O)(=O)N2Cc3ccccc3-c3sc(Br)cc32)cc1` [Compound C75], the IC50 was determined as 101 nM in experiment [1] and 309 nM in experiment [2]. Moreover, the mitotic spindle phenotype result with HFF1 cells (HFF1, 300 nM) was “not affected; also recorded: majority of HFF1 cells had bipolar spindles”; with HFF1 cells (HFF1, 750 nM) it was “disorganized”; in the experiment with MCF-10A cells, “mix of monopolar, bipolar and multipolar spindles”; in the experiment with MCF-7 cells, “mix of monopolar, bipolar and multipolar spindles”. In addition, in the experiment on HeLa spheroids (500 nM C75 or 250 nM C75-loaded nanoparticles, over 3 days), the “effect on HeLa spheroids” value was “disrupt HeLa spheroids”. For the same compound, the “live/dead staining of spheroids (fluorescein diacetate / propidium iodide)” value in the experiment with HeLa spheroids (HeLa spheroids, 500 nM, three days) is “majority of HeLa cells were dead”; in the experiment on HCT116 spheroids (HCT116 spheroids, 1 μM, six days), “much smaller after C75-treatment, but still contained live cells”. Moreover, the “effect on growth of HCT116 spheroids” value in the experiment on HCT116 spheroids (500 nM or 1 μM C75, 500 nM C75-loaded nanoparticles, over 5 days) is reported as “regress the growth”.
